Source: the NIST ThermoML archive (doi:10.1016/j.jct.2006.01.016)

Experiments:
[1] = 101 kPa, Liquid
[2] = xn = mol fraction of the nth substance listed; details: 101 kPa, Liquid

CO [methanol]
[1]
Details	mass density [kg/m3]	speed of sound [m/s]
298.15 K	786.531	–
303.15 K	781.808	1086.4
308.15 K	777.066	1070.1
313.15 K	772.283	1054
318.15 K	767.474	1037.9

CCCCn1cc[n+](C)c1.F[B-](F)(F)F [1-butyl-3-methylimidazolium tetrafluoroborate]
[1]
Details	mass density [kg/m3]	speed of sound [m/s]
298.15 K	1201.42	1576
303.15 K	1197.88	1555.5
308.15 K	1194.35	1543.9
313.15 K	1190.82	1532.5
318.15 K	1187.29	1521.2

CC#N [acetonitrile]
[1]
Details	mass density [kg/m3]	speed of sound [m/s]
298.15 K	776.533	1278.6
303.15 K	771.116	1258.7
308.15 K	765.66	1238.7
313.15 K	760.162	1218.5
318.15 K	754.462	1198.3

CO [methanol] + CCCCn1cc[n+](C)c1.F[B-](F)(F)F
[2], x2 = 0
Details	mass density [kg/m3]	speed of sound [m/s]
298.15 K	786.531	–
303.15 K	781.808	1086.4
308.15 K	777.066	1070.1
313.15 K	772.283	1054
318.15 K	767.474	1037.9

CCCCn1cc[n+](C)c1.F[B-](F)(F)F [1-butyl-3-methylimidazolium tetrafluoroborate] + CO
[2]
Details	mass density, 298.15 K [kg/m3]	mass density, 303.15 K [kg/m3]	mass density, 308.15 K [kg/m3]	mass density, 313.15 K [kg/m3]	mass density, 318.15 K [kg/m3]	speed of sound, 298.15 K [m/s]	speed of sound, 303.15 K [m/s]	speed of sound, 308.15 K [m/s]	speed of sound, 313.15 K [m/s]	speed of sound, 318.15 K [m/s]
x1 = 0.0086	805.151	800.482	795.796	791.081	786.347	–	1105.3	1089.3	1073.5	1057.8
x1 = 0.0473	871.093	866.582	862.063	857.529	852.979	–	1162.4	1147.8	1133.1	1118.6
x1 = 0.0989	935.734	931.386	927.032	922.668	918.304	–	1224.6	1211	1197.5	1184
x1 = 0.2027	1020.75	1016.6	1012.46	1008.33	1004.19	–	1321.8	1309.2	1296.5	1284
x1 = 0.3516	1090.69	1086.81	1082.62	1079.1	1075.21	1423.6	1411.3	1399.1	–	1375
x1 = 0.4958	1131.97	1128.15	1124.35	1120.99	1117.11	1477	1465	1453.1	1441.8	1430.1
x1 = 0.6961	1168.33	1164.63	1160.96	1157.3	1153.66	1524.1	1512.2	1500.4	1488.8	1477.2
x1 = 0.7982	1181.54	1177.91	1174.28	1170.67	1167.07	1541.2	1529.5	1517.9	1506.3	1494.8
x1 = 1	1201.42	1197.88	1194.35	1190.82	1187.29	1576	1555.5	1543.9	1532.5	1521.2

CCCCn1cc[n+](C)c1.F[B-](F)(F)F [1-butyl-3-methylimidazolium tetrafluoroborate] + CC#N
[2]
Details	mass density, 298.15 K [kg/m3]	mass density, 303.15 K [kg/m3]	mass density, 308.15 K [kg/m3]	mass density, 313.15 K [kg/m3]	mass density, 318.15 K [kg/m3]	speed of sound, 298.15 K [m/s]	speed of sound, 303.15 K [m/s]	speed of sound, 308.15 K [m/s]	speed of sound, 313.15 K [m/s]	speed of sound, 318.15 K [m/s]
x1 = 0.0103	794.416	789.093	783.745	778.368	772.971	1289.2	1269.3	1249.6	1230	1210.3
x1 = 0.0442	845.059	839.982	834.883	829.765	824.63	1315.7	1297	1278.2	1259.5	1240.8
x1 = 0.1032	913.689	908.908	904.123	899.327	894.531	1354.8	1337.2	1319.7	1302.3	1284.9
x1 = 0.2015	994.016	989.579	985.147	980.715	976.287	1407.7	1391.8	1375.8	1359.6	1344.1
x1 = 0.2931	1045.58	1041.36	1037.15	1032.94	1028.74	1445.2	1430.2	1415.2	1400.5	1385.8
x1 = 0.3935	1086.98	1082.93	1078.89	1074.86	1070.84	1476.8	1462.7	1448.6	1434.6	1420.8
x1 = 0.5352	1128.52	1124.64	1120.78	1116.92	1113.08	1509.2	1495.9	1482.6	1469.7	1456.9
x1 = 0.7043	1162.31	1158.57	1154.85	1151.13	1147.43	1535.9	–	1511.1	1498.8	1486.6
x1 = 1	1201.42	1197.88	1194.35	1190.82	1187.29	1576	1555.5	1543.9	1532.5	1521.2

CC#N [acetonitrile] + CCCCn1cc[n+](C)c1.F[B-](F)(F)F
[2], x2 = 0
Details	mass density [kg/m3]	speed of sound [m/s]
298.15 K	776.533	1278.6
303.15 K	771.116	1258.7
308.15 K	765.66	1238.7
313.15 K	760.162	1218.5
318.15 K	754.462	1198.3
